Results from patent publication US20150105252A1, “SUBSTITUTED PYRAZOLES AS HERBICIDES” (E I DU PONT DE NEMOURS AND COMPANY, priority 2013, published 2015).

Experiments:
[1] = system: bermudagrass; assay: Test C preemergence; assay type: in vivo, Cynodon dactylon; settings: for Plant response rating (scale of 0 to 100), Bermudagrass: Preemergence, 250 g ai/ha; for Bermudagrass plant response rating / Plant response rating, Bermudagrass: preemergence; for Plant response rating, Bermudagrass: 62 g ai/ha, scale 0 to 100, 0 = no effect, 100 = complete control
Text: (§1) Seeds of plant species selected from blackgrass (Alopecurus myosuroides), ryegrass, Italian (Italian ryegrass, Lolium multiflorum), wheat (winter wheat, Triticum aestivum), galium (catchweed bedstraw, Galium aparine), corn (Zea mays), crabgrass, large (large crabgrass, Digitaria sanguinalis), foxtail, giant (giant foxtail, Setaria faberii), johnsongrass (Sorghum halepense), lambsquarters (Chenopodium album), morningglory (Ipomoea coccinea), nutsedge, yellow (yellow nutsedge, Cyperus esculentus), pigweed (redroot pigweed, Amaranthus retroflexus), ragweed (common ragweed, Ambrosia elation), soybean (Glycine max), barnyardgrass (Echinochloa crus-galli), oilseed rape (Brassica napus), waterhemp (common waterhemp, Amaranthus rudis), oat, wild (wild oat, Avena fatua), kochia (Kochia scoparia), Surinam grass (Brachiaria decumbens), foxtail, green (green foxtail, Setaria viridis), goosegrass (Eleusine indica), bromegrass, downy (downy bromegrass, Bromus tectorum), nightshade (eastern black nightshade, Solanum ptycanthum), cocklebur (common cocklebur, Xanthium strumarium), cupgrass, woolly (woolly cupgrass, Eriochloa villosa), bermudagrass (Cynodon dactylon), sunflower, (common oilseed sunflower, Helianthus annuus), Russian thistle (Salsola kali), and velvetleaf (Abutilon theophrasti) were planted into a blend of loam soil and sand and treated preemergence with test chemicals formulated in a non-phytotoxic solvent mixture which included a surfactant.
(§2) At the same time, plants selected from these crop and weed species and also chickweed (common chickweed, Stellaria media), canarygrass (littleseed canarygrass, Phalaris minor), and deadnettle (henbit deadnettle, Lamium amplexicaule), were planted in pots containing Redi-Earth® planting medium (Scotts Company, 14111 Scottslawn Road, Marysville, Ohio 43041) comprising spaghnum peat moss, vermiculite, wetting agent and starter nutrients and treated with postemergence applications of test chemicals formulated in the same manner. Plants ranged in height from 2 to 18 cm (1- to 4-leaf stage) for postemergence treatments. Treated plants and controls were maintained in a greenhouse for 13 to 15 days, after which time all species were compared to controls and visually evaluated. Plant response ratings, summarized in Table C, are based on a scale of 0 to 100 where 0 is no effect and 100 is complete control. A dash (-) response means no test result.

[2] = system: canarygrass; assay: Test C postemergence; assay type: in vivo, Phalaris minor; settings: for Canarygrass plant response rating: scale 0 to 100
Text: as §1, §2

[3] = system: nightshade; assay: Test C preemergence; assay type: in vivo, Solanum ptycanthum; settings: for Plant response rating (scale of 0 to 100), Nightshade: Preemergence, 250 g ai/ha; for Nightshade plant response rating / Plant response rating, Nightshade: preemergence; for Plant response rating, Nightshade: 62 g ai/ha, scale 0 to 100, 0 = no effect, 100 = complete control
Text: as §1, §2

[4] = system: cocklebur; assay: Test C preemergence; assay type: in vivo, Xanthium strumarium; settings: for Plant response rating (scale of 0 to 100), Cocklebur: Preemergence, 250 g ai/ha; for Cocklebur plant response rating / Plant response rating, Cocklebur: preemergence; for Plant response rating, Cocklebur: 62 g ai/ha, scale 0 to 100, 0 = no effect, 100 = complete control
Text: as §1, §2

[5] = system: green foxtail; assay: Test F preemergence; assay type: in vivo, Setaria viridis
Text: (§3) Seeds of plant species selected from corn (Zea mays), soybean (Glycine max), velvetleaf (Abutilon theophrasti), lambsquarters (Chenopodium album), wild poinsettia (Euphorbia heterophylla), pigweed, palmer (palmer pigweed, Amaranthus palmeri), common waterhemp (Amaranthus rudis), surinam grass (Brachiaria decumbens), large crabgrass (Digitaria sanguinalis), crabgrass, Brazil (Brazilian crabgrass, Digitaria horizontalis), fall panicum (Panicum dichotomiflorum), giant foxtail (Setaria faberii), green foxtail (Setaria viridis), goosegrass (Eleusine indica), johnsongrass (Sorghum halepense), common ragweed (Ambrosia elation), barnyardgrass (Echinochloa crus-galli), southern sandbur (Cenchrus echinatus), arrowleaf sida (Sida rhombifolia), Italian ryegrass (Lolium multiflorum), dayflower, VA (Virginia (VA) dayflower, Commelina virginica), field bindweed (Convolvulus arvensis), cocklebur (common cocklebur, Xanthium strumarium), morningglory (Ipomoea coccinea), nightshade (eastern black nightshade, Solanum ptycanthum), kochia (Kochia scoparia), yellow nutsedge (Cyperus esculentus), and hairy beggarticks (Bidens pilosa), were planted into a silt loam soil and treated preemergence with test chemicals formulated in a non-phytotoxic solvent mixture which included a surfactant.
(§4) At the same time, plants from these crop and weed species and also horseweed (Canada horseweed, Conyza canadensis), smartweed (ladysthumb smartweed, Polygonum persicaria), waterhemp_RES1, (ALS & Triazine resistant common waterhemp, Amaranthus rudis), and waterhemp_RES2, (ALS & HPPD resistant common waterhemp, Amaranthus rudis) were treated with postemergence applications of test chemicals formulated in the same manner. Plants ranged in height from 2 to 18 cm for postemergence treatments (1- to 4-leaf stage). Treated plants and controls were maintained in a greenhouse for 14 to 21 days, after which time all species were compared to controls and visually evaluated. Plant response ratings, summarized in Table F, are based on a scale of 0 to 100 where 0 is no effect and 100 is complete control. A dash (-) response means no test result.

[6] = system: nightshade; assay: Test F preemergence; assay type: in vivo, Solanum ptycanthum
Text: as §3, §4

[7] = system: pigweed, palmer; assay: Test F preemergence; assay type: in vivo, Amaranthus palmeri
Text: as §3, §4

[8] = system: yellow nutsedge; assay: Test F preemergence; assay type: in vivo, Cyperus esculentus
Text: as §3, §4

[9] = system: velvetleaf; assay: Test F preemergence; assay type: in vivo, Abutilon theophrasti
Text: as §3, §4

[10] = system: southern sandbur; assay: Test F preemergence; assay type: in vivo, Cenchrus echinatus
Text: as §3, §4

[11] = system: wild poinsettia; assay: Test F preemergence; assay type: in vivo, Euphorbia heterophylla
Text: as §3, §4

[12] = system: arrowleaf sida; assay: Test F preemergence; assay type: in vivo, Sida rhombifolia
Text: as §3, §4

[13] = system: giant foxtail; assay: Test F preemergence; assay type: in vivo, Setaria faberii
Text: as §3, §4

[14] = 31 g ai/ha, scale 0 to 100 (0 no effect, 100 complete control), 13 to 15 days
[15] = 125 g ai/ha, scale 0 to 100, 0 is no effect, 100 is complete control
[16] = postemergence, 250 g ai/ha, scale 0 to 100 (0 no effect, 100 complete control)
[17] = postemergence, 62 g ai/ha, scale 0 to 100, 0 no effect, 100 complete control
[18] = postemergence, 125 g ai/ha, scale 0 to 100, 0 no effect, 100 complete control
[19] = Preemergence, 31 g ai/ha, scale 0 to 100
[20] = Preemergence, 62 g ai/ha, scale 0 to 100
[21] = Preemergence, 125 g ai/ha, scale 0 to 100
[22] = preemergence, 8 g ai/ha, scale 0 to 100, 100 is complete control
[23] = preemergence, 16 g ai/ha, scale 0 to 100, 100 is complete control

**Q.** Which results are given for `CCc1cc(C(=O)NOC(C)C)nn1Cc1cccc(OC(F)(F)F)c1` [Compound 70]?
**A.** Plant response rating (scale of 0 to 100), Bermudagrass [1]: 100; Bermudagrass plant response rating [1, 14]: 98; Plant response rating, Bermudagrass ([1]; 13 to 15 days): 98; Bermudagrass plant response rating [1, 15]: 100; Canarygrass plant response rating ([2]; Postemergence, 31 g ai/ha): 0; Plant response rating, Canarygrass [2, 16]: 60; Plant response rating, Canarygrass [2, 17]: 5; Plant response rating, Canarygrass [2, 18]: 15; Plant response rating (scale of 0 to 100), Nightshade [3]: 98; Nightshade plant response rating [3, 14]: 70; Plant response rating, Nightshade ([3]; 13 to 15 days): 98; Nightshade plant response rating [3, 15]: 98; Plant response rating (scale of 0 to 100), Cocklebur [4]: 100; Cocklebur plant response rating [4, 14]: 0; Plant response rating, Cocklebur ([4]; 13 to 15 days): 0; Cocklebur plant response rating [4, 15]: 45

**Q.** Which results are given for `Cc1cc(C(=O)NCC(F)(F)F)nn1Cc1ccnc(C(F)(F)F)c1` [Compound 74]?
**A.** Plant response rating (scale of 0 to 100), Bermudagrass [1]: 98; Bermudagrass plant response rating [1, 14]: 50; Plant response rating, Bermudagrass ([1]; 13 to 15 days): 90; Bermudagrass plant response rating [1, 15]: 98; Canarygrass plant response rating ([2]; Postemergence, 31 g ai/ha): 0; Canarygrass plant response rating ([2]; postemergence, 62 g ai/ha): 0; Plant response rating, Canarygrass [2, 16]: 5; Plant response rating, Canarygrass [2, 18]: 0; Plant response rating (scale of 0 to 100), Nightshade [3]: 98; Nightshade plant response rating [3, 14]: 90; Plant response rating, Nightshade ([3]; 13 to 15 days): 90; Nightshade plant response rating [3, 15]: 95; Plant response rating (scale of 0 to 100), Cocklebur [4]: 100; Cocklebur plant response rating [4, 14]: 100; Plant response rating, Cocklebur ([4]; 13 to 15 days): 100; Cocklebur plant response rating [4, 15]: 100

**Q.** `CCCNC(=O)c1cc(CC)n(Cc2cccc(OC(F)(F)F)c2)n1` [Compound 27] was tested. Which “Canarygrass plant response rating” value ([2]; Postemergence, 31 g ai/ha) did it give?
**A.** The value was 5.

**Q.** And the “Plant response rating, Canarygrass” value [2, 16]?
**A.** The value was 10.

**Q.** And the “Plant response rating, Canarygrass” value [2, 17]?
**A.** The value was 5.

**Q.** And the “Plant response rating, Canarygrass” value [2, 18]?
**A.** Its value is 10.

**Q.** What does the source list for `CCc1cc(-c2ccc(C(F)(F)F)cc2)nn1Cc1ccnc(C(F)(F)F)c1` [Compound 110]?
**A.** Plant response rating, Green Foxtail [5, 19]: 75; Plant response rating, Green Foxtail [5, 20]: 100; Plant response rating, Green Foxtail [5, 21]: 100; Plant response rating, Green Foxtail [5, 22]: 25; Plant response rating, Green Foxtail [5, 23]: 30; Plant response rating, Nightshade [6, 19]: 80; Plant response rating, Nightshade [6, 20]: 85; Plant response rating, Nightshade [6, 21]: 95; Plant response rating, Nightshade [6, 22]: 50; Plant response rating, Nightshade [6, 23]: 65; Plant response rating, Pigweed, Palmer [7, 19]: 95; Plant response rating, Pigweed, Palmer [7, 20]: 100; Plant response rating, Pigweed, Palmer [7, 21]: 100; Plant response rating, Pigweed, Palmer [7, 22]: 70; Plant response rating, Pigweed, Palmer [7, 23]: 90; Plant response rating, Yellow Nutsedge [8, 19]: 0; Plant response rating, Yellow Nutsedge [8, 20]: 0; Plant response rating, Yellow Nutsedge [8, 21]: 0; Plant response rating, Yellow Nutsedge [8, 22]: 0; Plant response rating, Yellow Nutsedge [8, 23]: 0; Plant response rating, Velvetleaf [9, 19]: 30; Plant response rating, Velvetleaf [9, 20]: 40; Plant response rating, Velvetleaf [9, 21]: 75; Plant response rating, Velvetleaf [9, 22]: 20; Plant response rating, Velvetleaf [9, 23]: 35; Plant response rating, Southern Sandbur [10, 19]: 20; Plant response rating, Southern Sandbur [10, 20]: 35; Plant response rating, Southern Sandbur [10, 21]: 75; Plant response rating, Southern Sandbur [10, 22]: 0; Plant response rating, Southern Sandbur [10, 23]: 20; Plant response rating, Wild Poinsettia [11, 19]: 35; Plant response rating, Wild Poinsettia [11, 20]: 50; Plant response rating, Wild Poinsettia [11, 21]: 80; Plant response rating, Wild Poinsettia [11, 22]: 25; Plant response rating, Wild Poinsettia [11, 23]: 25; Plant response rating, Arrowleaf Sida [12, 19]: 65; Plant response rating, Arrowleaf Sida [12, 20]: 80; Plant response rating, Arrowleaf Sida [12, 21]: 90; Plant response rating, Arrowleaf Sida [12, 22]: 35; Plant response rating, Arrowleaf Sida [12, 23]: 65; Plant response rating, Giant Foxtail [13, 19]: 70; Plant response rating, Giant Foxtail [13, 20]: 95; Plant response rating, Giant Foxtail [13, 21]: 98; Plant response rating, Giant Foxtail [13, 22]: 25; Plant response rating, Giant Foxtail [13, 23]: 40

**Q.** With `CCONC(=O)c1cc(CC)n(Cc2cccc(OC(F)(F)F)c2)n1` [Compound 72] as the compound, how does the “Plant response rating (scale of 0 to 100), Bermudagrass” value [1] read?
**A.** The value was 100.

**Q.** What about the “Bermudagrass plant response rating” value [1, 14] of the same compound?
**A.** Its value is 85.

**Q.** What about the “Plant response rating, Bermudagrass” value ([1]; 13 to 15 days) of the same compound?
**A.** The value was 98.

**Q.** And the “Bermudagrass plant response rating” value [1, 15]?
**A.** Its value is 98.

**Q.** And the “Canarygrass plant response rating” value ([2]; Postemergence, 31 g ai/ha)?
**A.** The value was 5.

**Q.** What about the “Canarygrass plant response rating” value ([2]; postemergence, 62 g ai/ha) of the same compound?
**A.** Its value is 10.

**Q.** And the “Plant response rating, Canarygrass” value [2, 16]?
**A.** The value was 30.

**Q.** What about the “Plant response rating, Canarygrass” value [2, 18] of the same compound?
**A.** The value was 20.

**Q.** What about the “Plant response rating (scale of 0 to 100), Nightshade” value [3] of the same compound?
**A.** The value was 100.

**Q.** What about the “Nightshade plant response rating” value [3, 14] of the same compound?
**A.** Its value is 75.

**Q.** And the “Plant response rating, Nightshade” value ([3]; 13 to 15 days)?
**A.** The value was 98.

**Q.** And the “Nightshade plant response rating” value [3, 15]?
**A.** The value was 98.

**Q.** What about the “Plant response rating (scale of 0 to 100), Cocklebur” value [4] of the same compound?
**A.** Its value is 100.

**Q.** And the “Cocklebur plant response rating” value [4, 14]?
**A.** Its value is 0.

**Q.** What about the “Plant response rating, Cocklebur” value ([4]; 13 to 15 days) of the same compound?
**A.** Its value is 0.

**Q.** What about the “Cocklebur plant response rating” value [4, 15] of the same compound?
**A.** Its value is 10.

**Q.** `CCc1cc(C(=O)NCC(F)(F)F)nn1Cc1cccc(OC(F)(F)F)c1` [Compound 20] was tested. Which “Canarygrass plant response rating” value ([2]; Postemergence, 31 g ai/ha) did it give?
**A.** The value was 5.

**Q.** And the “Plant response rating, Canarygrass” value [2, 16]?
**A.** Its value is 15.

**Q.** And the “Plant response rating, Canarygrass” value [2, 17]?
**A.** The value was 10.

**Q.** And the “Plant response rating, Canarygrass” value [2, 18]?
**A.** The value was 15.
